Assay results taken from US20240246995A1, “PYRIMIDINONE DERIVATIVE AND PREPARATION METHOD THEREFOR, PHARMACEUTICAL COMPOSITION, AND USE” (SHANGHAI SIMR BIOTECHNOLOGY CO., LTD., priority 2021, published 2024).

Target: T1, Lipoprotein-Related Phospholipase A2 (Lp-PLA2) in Human Plasma (Homo sapiens, UniProt Q13093)
T1 construct: 40 μL of equally-divided and thawed mixed human plasma is pre-added; from tissue; host or cells: mixed (pooled) human plasma
T1 sequence (Q13093 22-441): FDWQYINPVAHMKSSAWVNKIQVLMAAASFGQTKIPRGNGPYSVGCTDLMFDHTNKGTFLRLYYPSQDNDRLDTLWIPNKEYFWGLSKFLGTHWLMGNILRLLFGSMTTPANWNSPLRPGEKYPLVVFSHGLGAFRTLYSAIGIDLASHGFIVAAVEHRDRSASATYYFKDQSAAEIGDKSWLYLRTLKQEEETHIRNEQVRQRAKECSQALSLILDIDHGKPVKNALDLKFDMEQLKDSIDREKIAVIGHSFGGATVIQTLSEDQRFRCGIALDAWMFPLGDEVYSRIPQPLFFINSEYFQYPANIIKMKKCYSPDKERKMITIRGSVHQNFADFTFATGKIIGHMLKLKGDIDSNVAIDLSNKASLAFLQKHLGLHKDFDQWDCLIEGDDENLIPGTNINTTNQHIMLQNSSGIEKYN
Assay: Determination of Lp-PLA2 in human plasma (Thio-PAF assay)
Type: biochemical
Conditions: mixed human plasma, 2-thio-PAF substrate, 30 minutes pre-incubation at room temperature
Source text: Determination of Lipoprotein-Related Phospholipase A2 (Lp-PLA2) in Human Plasma.
Human plasma determination utilizes a thioester analogue of phosphatidylcholine (PAF), where hydrolysis leads to the formation of phospholipids containing free thiol groups. The amount of the thiol groups is continuously determined by reacting with CPM (7-diethylamino-3-(4′-maleimidophenyl)-4-methylcoumarin), which is maleimide with increased fluorescence after Michael addition of the thiol groups. This determination can detect the activity of Lp-PLA2 in human plasma, for example, determined by the specific inhibition of the Lp-PLA2 inhibitors.
Thio-PAF determination, as quenched 75 μL determination, is carried out. A compound source plate is prepared by preparing a 1:3 (volume) series of diluents of each compound in pure DMSO on a 96-well microplate. A Rainin multi-channel pipette is used to transfer 3 μL of a compound on the compound source plate into a 96-well microplate where 57 μL of a determination buffer is pre-added, and the compound on the source plate is diluted by 20 folds. The above determination buffer contains 50 mM HEPES (pH 7.4), 150 mM NaCl, and 1 mM CHAPS. A Rainin multi-channel pipette is used to transfer 1 μL of the compound subjected to 20-fold dilution into a 96-well Greiner 655076 (black) microplate where 40 μL of equally-divided and thawed mixed human plasma is pre-added. The plate is oscillated for 20 seconds in an Elisa plate oscillator to be mixed evenly. After 30 minutes of pre-incubation at the room temperature, a Rainin multi-channel pipette is used to add 10 μL of a substrate solution to a 96-well Greiner 655076 (black) microplate, and the substrate solution contains 2.5 mM 2-thio-PAF [from ethanol mother liquor], 32 μM CPM [from DMSO mother liquor] and 3.2 mM NEM (N-ethylmaleimide) [newly prepared in DMSO for each experiment] in a determination buffer composed of 50 mM HEPES (pH 7.4), 150 mM NaCl, and 1 mM CHAPS. After 2 minutes, 25 μL of a 5% trifluoroacetic acid (TFA) aqueous solution is used for quenching the reaction. The plate is centrifuged at 2000 rpm for 1 minute. A Biotek Synergy H1 (H1MF) Elisa reader is used to read the plate at ex:380/em:485. GraphPad Prism 6.0 and Excel are used for IC50 data, curve, and QC analysis.

## Cc1cc(Oc2c(F)cc(COc3cc4n(c(=O)n3)CCC3(C)CCCN43)cc2F)ccn1 (stereo not shown) [Example 35, 2-((3,5-fluoro-4-((2-methylpyrid-4-yl)oxy)benzyl)oxy)-7a-methyl-6,7,7a, 8,9,10-hexahydro-4H-pyrimidinyl [1,6-a]pyrrolo[1,2-c] pyrimidine-4-one]
  IC50: 23.2 nM

## CC12CCCN1c1cc(OCc3cc(F)c(Oc4ccnc(Cl)c4)c(F)c3)nc(=O)n1CC2 (stereo not shown) [Example 36]
  IC50: 17.4 nM

## CC12CCCN1c1cc(OCc3ccc(F)c(C#N)c3)nc(=O)n1CC2 (stereo not shown) [Example 37]
  IC50: 34 nM

## CCC12CCCN1c1cc(OCc3cc(F)c(Oc4ccnc(C(F)(F)F)c4)c(F)c3)nc(=O)n1CC2 (stereo not shown) [Example 38, 2-((3,5-difluoro-4-((2-(trifluoromethyl)pyrid-4-yl)oxy)benzyl)oxy)-7a-ethyl-6,7,7a,8,9,10-hexahydro-4H-pyrimido[1,6-a] pyrrolo[1,2-c] pyrimidine-4-one]
  IC50: 8.1 nM

## CCC12CCCN1c1cc(OCc3cc(F)c(Oc4ccc(Cl)c(C(F)(F)F)c4)c(F)c3)nc(=O)n1CC2 (stereo not shown) [Example 39, 2-((4-(4-chloro-3-(trifluoromethyl)phenoxy)-3,5-difluorobenzyl)oxy)-7a-ethyl-6,7,7a,8,9, 10-hexahydro-4H-pyrimidinyl[1,6-a] pyrrolo[1,2-c] pyrimidine-4-one]
  IC50: 33.1 nM

## CCC12CCCN1c1cc(OCc3ccc(Oc4cccc(C(F)(F)F)c4)c(C#N)c3)nc(=O)n1CC2 (stereo not shown) [Example 40]
  IC50: 10.7 nM

## CCC12CCCN1c1cc(OCCc3ccc(Oc4ccc(Cl)c(C(F)(F)F)c4)cc3)nc(=O)n1CC2 (stereo not shown) [Example 41, 2-(4-(4-chloro-3-(trifluoromethyl)phenoxy)phenyl-ethoxy)-7a-ethyl-6,7,7a, 8,9,10-hexahydro-4H-pyrimidine [1,6-a]pyrrole[1,2-c]pyrimidine-4-one]
  IC50: 235 nM

## O=c1nc(OCc2ccc(Oc3ccnc(C(F)(F)F)c3)c(F)c2)cc2n1CCC1CCCCN21 (stereo not shown) [Example 42, 2-((3-fluoro-4-((2-(trifluoromethyl)pyrid-4-yl)oxy)benzyl)oxy)-7,7a,8,9,10,11-hexahydro-4H,6H-pyridine[1,2-c]pyrimidine[1,6-a]pyrimidine-4-one]
  IC50: 24.4 nM

## O=c1nc(OCc2cc(F)c(Oc3ccc(Cl)c(C(F)(F)F)c3)c(F)c2)cc2n1CCC1CCCCN21 (stereo not shown) [Example 43, 2-((4-(4-chloro-3-(trifluoromethyl)phenoxy)-3,5-di-fluorobenzyl)oxy)-7,7a,8,9,10,11-hexahydro-4H,6H-pyri-dyl[1,2-c]pyrimido [1,6-a]pyrimidine-4-one]
  IC50: 11.9 nM

## N#Cc1cc(COc2cc3n(c(=O)n2)CCC2CCCCN32)ccc1Oc1cccc(C(F)(F)F)c1 (stereo not shown) [Example 44]
  IC50: 14.9 nM

## O=c1nc(OCc2cc(F)c(Oc3cnc(C(F)(F)F)nc3)c(F)c2)cc2n1CCC1CCCCN21 (stereo not shown) [Example 45, 2-((3,5-difluoro-4-((2-(trifluoromethyl)pyrimidin-5-yl)oxy)benzyl)oxy)-7,7a,8,9,10,11-hexahydro-4H,6H-pyridino[1,2-c]pyri-mido[1,6-a] pyrimidine-4-one]
  IC50: 66.5 nM

## O=c1nc(OCCc2ccc(Oc3ccc(Cl)c(C(F)(F)F)c3)cc2)cc2n1CCC1CCCCN21 (stereo not shown) [Example 46, 2-(4-(4-chloro-3-(trifluoromethyl)phenoxy)phenylethoxy)-7,7a,8,9,10,11-hexahydro-4H, 6H-pyridyl[1,2-c] pyrimidinyl[1,6-a] pyrimidine-4-one]
  IC50: 220 nM

## O=c1nc(OCc2ccc(Oc3ccnc(C(F)(F)F)c3)c(F)c2)cc2n1CC[C@@H]1CCCCN21 [Example 47, (S)-2-((3-fluoro-4-((2-(trifluoromethyl)pyrid-4-yl)oxy)benzyl)oxy)-7,7a, 8,9,10,11-hexahydro-4H,6H-pyridino[1,2-c] pyrimidine[1,6-a] pyrimidine-4-one]
  IC50: 14.6 nM

## COc1c(OCc2ccc(Oc3ccnc(C(F)(F)F)c3)c(F)c2)nc(=O)n2c1N1CCCC[C@H]1CC2 [Example 48]
  IC50: 5.1 nM

## CC12CCCCN1c1cc(OCc3ccc(Oc4ccnc(C(F)(F)F)c4)c(F)c3)nc(=O)n1CC2 (stereo not shown) [Example 49, 2-((3-fluoro-4-((2-(trifluoromethyl)pyrid-4-yl)oxy)benzyl)oxy)-7a-methyl-7,7a,8,9,10,11-hexahydro-4H,6H-pyridino[1,2-c] pyrimidine[1,6-a] pyrimidine-4-one]
  IC50: 1.6 nM

## Cc1cc(Oc2c(F)cc(COc3cc4n(c(=O)n3)CCC3(C)CCCCN43)cc2F)ccn1 (stereo not shown) [Example 50, 2-((3,5-difluoro-4-((2-methylpyrid-4-yl)oxy)benzyl)oxy)-7a-methyl-7,7a,8,9,10,11-hexahydro-4H,6H-pyridino [1,2-c]pyrimidine [1,6-a]pyrimidine-4-one]
  IC50: 12.9 nM

## O=c1nc(OCc2cc(F)c(Oc3ccnc(C(F)(F)F)c3)c(F)c2)cc2n1CCC1COCCN21 (stereo not shown) [Example 51, 2-((3,5-difluoro-4-((2-(trifluoromethyl)pyrid-4-yl)oxy)benzyl)oxy)-6,7,7a,8,10,11-hexahydro-4H-pyrimidinyl [6′,1′:2,3]pyrimidine [6,1-c][1,4] oxazin-4-one]
  IC50: 6.6 nM

## O=c1nc(OCc2cc(F)c(Oc3ccc(Cl)c(C(F)(F)F)c3)c(F)c2)cc2n1CCC1COCCN21 (stereo not shown) [Example 52, 2-((4-(4-chloro-3-(trifluoromethyl)phenoxy)-3,5-di-fluorobenzyl)oxy)-6,7,7a,8,10,11-hexahydro-4H-pyrimidinyl [6′,1′:2,3] pyrimido[6,1-c][1,4] oxazin-4-one]
  IC50: 10.6 nM

## N#Cc1cc(COc2cc3n(c(=O)n2)CCC2COCCN32)ccc1Oc1cccc(C(F)(F)F)c1 (stereo not shown) [Example 53]
  IC50: 7.3 nM

## O=c1nc(OCc2cc(F)c(Oc3ccnc(OC(F)(F)F)c3)c(F)c2)cc2n1CCC1COCCN21 (stereo not shown) [Example 54, 2-((3,5-difluoro-4-((2-(trifluoro-methoxy)pyrid-4-yl)oxy)benzyl)oxy)-6,7,7a,8,10,11-hexahydro-4H-pyrimidinyl [6′,1′:2,3] pyrimidine [6,1-c][1,4] oxazin-4-one]
  IC50: 5.3 nM

## O=c1nc(OCc2cc(F)c(Oc3cnc(C(F)(F)F)nc3)c(F)c2)cc2n1CCC1COCCN21 (stereo not shown) [Example 55]
  IC50: 13.7 nM

## O=c1nc(OCCc2ccc(Oc3ccc(Cl)c(C(F)(F)F)c3)cc2)cc2n1CCC1COCCN21 (stereo not shown) [Example 56, 2-(4-(4-chloro-3-(trifluoromethyl)phenoxy)phenyl-ethoxy)-6,7,7a,8,10,11-hexahydro-4H-pyrimidinyl [6′,1′:2,3] pyrimidinyl[6,1-c] [1,4]oxazin-4-one]
  IC50: 20.1 nM

## O=c1nc(OCc2ccc(Oc3ccnc(C(F)(F)F)c3)c(F)c2)c(F)c2n1CC[C@]13CO[C@H](CN21)C3 [Example 57, (7aS,10S)-1-fluoro-2-((3-fluoro-4-((2-(trifluoromethyl)pyrid-4-yl)oxy)benzyl)oxy)-6,7,10, 11-tetrahydro-4H, 8H-7a,10-methyl-pyrimidinyl[6′,1′: 2,3]pyrimidinyl [6,1-c][1,4]oxazin-4-one]
  IC50: 3.3 nM

## O=c1nc(OCc2ccc(Oc3ccnc(C(F)(F)F)c3)c(F)c2)c(Cl)c2n1CC[C@]13CO[C@H](CN21)C3 [Example 58, (7aS,10S)-1-chloro-2-((3-fluoro-4-((2-(trifluoromethyl)pyrid-4-yl)oxy)benzyl)oxy)-6,7,10, 11-tetrahydro-4H, 8H-7a,10-methyl-pyrimidinyl[6′,1′: 2,3]pyrimidinyl [6,1-c][1,4]oxazin-4-one]
  IC50: 3.4 nM

## Cc1c(OCc2ccc(Oc3ccnc(C(F)(F)F)c3)c(F)c2)nc(=O)n2c1N1C[C@@H]3C[C@@]1(CC2)CO3 [Example 59, (7aS,10S)-2-((3-fluoro-4-((2-(trifluoromethyl)pyrid-4-yl)oxy)benzyl)oxy)-1-methyl-6,7,10, 11-tetrahydro-4H, 8H-7a,10-methyl-pyrimidinyl[6′,1′: 2,3]pyrimidinyl [6,1-c][1,4]oxazin-4-one]
  IC50: 5.1 nM
